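Exposure lasted 48 hours, with cells grown in 96-well plates and compounds tested at five concentrations. The concentration for full growth arrest is given as TGI.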
How the values were obtained:
Test in all cases: inhibition of tumour cell growth, NCI panel, 48 h
SK-MEL-28 melanoma = test system: SK-MEL-28 melanoma
A549 NSCLC = test system: A549 NSCLC
M14 melanoma = test system: M14 melanoma
HCC-2998 colon = test system: HCC-2998 colon
HL-60(TB) leukemia = test system: HL-60(TB) leukemia
ACHN renal = test system: ACHN renal
A498 renal = test system: A498 renal
CCRF-CEM leukemia = test system: CCRF-CEM leukemia

Structure (SMILES)	TGI (SK-MEL-28 melanoma)	TGI (A549 NSCLC)	TGI (M14 melanoma)	TGI (HCC-2998 colon)	TGI (HL-60(TB) leukemia)	TGI (ACHN renal)	TGI (A498 renal)	TGI (CCRF-CEM leukemia)
NC(=S)NNc1c([N+](=O)[O-])cnn(-c2ccccc2)c1=O	30.8 µM	49.9 µM	28.4 µM	33 µM	19.3 µM	32.7 µM		
CCCCN(CCCC)c1c([N+](=O)[O-])c(=O)nc2ccccn12	54 µM	> 100 µM	83.3 µM			> 100 µM	48.2 µM	> 100 µM
CCC1=NC(CO)[C@H](c2ccccc2)O1 (stereo not given in full)	> 100 µM	> 100 µM				> 100 µM	> 100 µM	
O=[N+]([O-])c1cnn(C2=CNc3ccccc3N=C2)c1	> 100 µM	> 100 µM		> 100 µM	> 100 µM	> 100 µM		> 100 µM
Cc1cccc(-n2c(=S)[nH]c3c(sc(=O)n3-c3ccccc3C)c2=O)c1	> 100 µM	> 100 µM	> 100 µM	> 100 µM	> 100 µM	> 100 µM	> 100 µM	> 100 µM
CN1CC[C@]2(C)c3ccc(O)cc3CC3CCCC1C32C (stereo not given in full)	> 100 µM	> 100 µM	> 100 µM	> 100 µM	> 100 µM	> 100 µM	> 100 µM	> 100 µM
C/C=C/C=C/C=C/C=C/C(=O)O	> 100 µM	> 100 µM	> 100 µM	> 100 µM	> 100 µM	> 100 µM	> 100 µM	> 100 µM
Cc1cccc(C)c1NC(=O)C1C(=O)N(c2c(C)cccc2C)C(=O)/C1=N\NC(N)=S (stereo not given)	> 100 µM	> 100 µM	> 100 µM	> 100 µM	> 100 µM	> 100 µM	> 100 µM	> 100 µM
Cc1ccc(-c2cc(-c3ccccc3)c(C#N)c(=O)n2C2OC(CO)C(O)C(O)C2O)cc1 (stereo not given)	> 100 µM	> 100 µM	> 100 µM	> 100 µM	> 100 µM	> 100 µM	> 100 µM	> 100 µM
Cc1ccc(-c2cc(-c3ccco3)c(C#N)c(=O)n2C2OC(OC(=O)c3ccccc3)C(OC(=O)c3ccccc3)C2OC(=O)c2ccccc2)cc1 (stereo not given)	> 100 µM	> 100 µM	> 100 µM	> 100 µM		> 100 µM	> 100 µM	> 100 µM
COC1OC(CO)C(O)C1N (stereo not given)	> 100 µM	> 100 µM	> 100 µM		> 100 µM	> 100 µM	> 100 µM	> 100 µM
CC[C@]1(O)C(=O)OCc2c1cc1n(c2=O)Cc2cc3c(N)cccc3nc2-1	> 100 µM	> 100 µM	> 100 µM	> 100 µM	> 100 µM	> 100 µM	> 100 µM	> 100 µM
COc1ccc(/C=C\c2cc(OC)c(O[Si](C)(C)C(C)(C)C)c(OC)c2)cc1	43.4 µM	> 100 µM	> 100 µM	> 100 µM		> 100 µM	81.1 µM	49.8 µM
CCOC(=O)c1cc(/C=C/C(C)=C/C(=O)OC)oc1C	> 100 µM	> 100 µM	> 100 µM		> 100 µM	> 100 µM		> 100 µM
CC(=O)NC(CCCCNC(=O)NCCCl)C(=O)NCc1ccccc1 (stereo not given)	> 100 µM	> 100 µM	> 100 µM	> 100 µM	> 100 µM	> 100 µM		> 100 µM
Cc1cc(C)c(C(=O)c2no[n+]([O-])c2C(=O)c2c(C)cc(C)c(Br)c2C)c(C)c1Br	27.5 µM	39.1 µM	25.1 µM		15.2 µM	34.9 µM	32.6 µM	8.88 µM
CN(C)CC1CCC/C1=N\O (stereo not given)	> 100 µM		> 100 µM	> 100 µM		> 100 µM	> 100 µM	> 100 µM
CC(=O)OCC(OC(C)=O)C(OC(C)=O)C(OC(C)=O)C(=O)CNn1c(-c2ccccc2Cl)nc2ccccc2c1=O (stereo not given)	> 100 µM	> 100 µM	> 100 µM		> 100 µM	> 100 µM	> 100 µM	> 100 µM
C/C(=N\N(c1ccccc1)c1ccccc1)c1c(O)cc(C)oc1=O	> 100 µM	> 100 µM	> 100 µM	> 100 µM		> 100 µM	> 100 µM	> 100 µM
COC(=O)[C@]12CCC(C)[C@H](C)[C@H]1C1=CCC3[C@@]4(C)CC[C@H](OC(C)=O)C(C)(C)C4CC[C@@]3(C)C1(C)C(O)C2 (stereo not given in full)	> 100 µM	> 100 µM	> 100 µM	> 100 µM		> 100 µM	> 100 µM	> 100 µM
COC(=O)c1ccccc1NC(=O)C(=O)NNC(=O)c1ccncc1	> 100 µM	> 100 µM	> 100 µM	> 100 µM	> 100 µM	> 100 µM		> 100 µM

— PubChem BioAssay (NCI)
